Our source for the DC50 values is US20240101540A1, “TARGETED PROTEIN DEGRADATION OF PARP14 FOR USE IN THERAPY” (Ribon Therapeutics, Inc., priority 2022, published 2024).

This experiment addresses T1, catalytic domain of human PARP14 (residues 1611 to 1801) with NanoLuc tag (Homo sapiens, UniProt Q460N5).
T1 construct: expressed in transfected cells; host or cells: HEK-293T cells (ATCC), pcDNA3.1(-) vector
T1 sequence (Q460N5 1611-1801): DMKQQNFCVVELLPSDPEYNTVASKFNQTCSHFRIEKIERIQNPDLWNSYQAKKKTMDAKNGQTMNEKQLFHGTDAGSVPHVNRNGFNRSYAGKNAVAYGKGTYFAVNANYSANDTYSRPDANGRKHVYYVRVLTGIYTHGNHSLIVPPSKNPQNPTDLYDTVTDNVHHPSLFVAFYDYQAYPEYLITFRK
Put plainly: NanoLuc assay for the degradation of PARP14 (NanoLuc-tagged PARP14 overexpressed in HEK-293T cells, 2 hours). The following applies: Assay A (Example A): NanoLuc-tagged PARP14 degradation in HEK-293T cells, read-out: DC50. The experiment is classed as cell-based.

In the case of `O=C1CCC(Nc2ccc(NC3CCN(CCN4CCC(COc5cc(F)c6c(=O)[nH]c(CSC7CCOCC7)nc6c5)CC4)CC3)cc2)C(=O)N1` (centres unmarked) [Example 94, 3-((4-((1-(2-(4-(((5-fluoro-4-oxo-2-(((tetrahydro-2H-pyran-4-yl)thio)methyl)-3,4-dihydroquinazolin-7-yl)oxy)methyl)piperidin-1-yl)ethyl)piperidin-4-yl)amino)phenyl)amino)piperidine-2,6-dione], the half-maximal degradation concentration (DC50) was less than 100 nM. Regarding `O=C1CCC(Nc2ccc(N3CC4CCC(C3)N4CCN3CCC(COc4cc(F)c5c(=O)[nH]c(CSC6CCOCC6)nc5c4)CC3)cc2)C(=O)N1` (centres unmarked) [Example 95, 3-((4-(8-(2-(4-(((5-fluoro-4-oxo-2-(((tetrahydro-2H-pyran-4-yl)thio)methyl)-3,4-dihydroquinazolin-7-yl)oxy)methyl)piperidin-1-yl)ethyl)-3,8-diazabicyclo[3.2.1]octan-3-yl)phenyl)amino)piperidine-2,6-dione], the 50% degradation concentration (DC50) is less than 100 nM. The result for `O=C1CCC(Nc2ccc(N3CCN(CCN4CCC(COc5cc(F)c6c(=O)[nH]c(CC7CCCC7)nc6c5)CC4)CC3)cc2)C(=O)N1` (centres unmarked) [Example 96, 3-((4-(4-(2-(4-(((2-(cyclopentylmethyl)-5-fluoro-4-oxo-3,4-dihydroquinazolin-7-yl)oxy)methyl)piperidin-1-yl)ethyl)piperazin-1-yl)phenyl)amino)piperidine-2,6-dione] reads less than 100 nM; that for `O=C1CCC(Nc2ccc(OC3CC(CN4CCC(COc5cc(F)c6c(=O)[nH]c(CSC7CCN(CC(F)(F)F)CC7)nc6c5)CC4)C3)cc2)C(=O)N1` (centres unmarked) [Example 109], less than 100 nM. The result for `O=C1CCC(Nc2ccc(N3C4CCC3CN(CCN3CCC(COc5cc(F)c6c(=O)[nH]c(CSC7CCOCC7)nc6c5)CC3)C4)cc2)C(=O)N1` (centres unmarked) [Example 121] reads less than 100 nM. The result for `O=C1CCC(Nc2ccc(N3CCN(CCN4CCC(COc5cc(F)c6c(=O)[nH]c(CSC7CCOCC7)nc6c5)CC4)CC3C(F)(F)F)cc2)C(=O)N1` (centres unmarked) [Example 122] reads less than 100 nM; that for `CN(c1ccc(NC2CCC(=O)NC2=O)cc1)C1CCN(CCN2CCC(COc3cc(F)c4c(=O)[nH]c(CSC5CCOCC5)nc4c3)CC2)CC1` (centres unmarked) [Example 123], less than 100 nM.

Regarding `O=C1CCC(Nc2ccc(N3CCN(C4CCC(COc5cc(F)c6c(=O)[nH]c(CSC7CCOCC7)nc6c5)CC4)CC3)cc2)C(=O)N1` (centres unmarked) [Example 124], the DC50 is less than 100 nM.
